Data as given in patent US9023874B2, “Fluorinated oxa or thia heteroarylalkylsulfide derivatives for combating invertebrate pests” (Merial, Inc., priority 2009, dated 2015).

Tests used:
Format in all cases: in vivo
[1] = tested on: boll weevil (Anthonomus grandis); assay: Activity against boll weevil, insect diet with eggs in microtiter plates; conditions: 120 h, test solution 2500 mg/L, sprayed onto diet, 5 days, read-out: mortality (egg and larval) in comparison with untreated controls
Procedure: The compounds were formulated in 75:25 (vohvol) water:DMSO.
For evaluating control of boll weevil (Anthonomus grandis) the test unit consisted of 24-well-microtiter plates containing an insect diet and 20-30 A. grandis eggs. Different concentrations of formulated compounds were sprayed onto the insect diet at 20 μI, using a custom built micro atomizer, at two replications. After application, the microtiter plates were incubated at 23±1° C. and 50±5% relative humidity for 5 days. Egg and larval mortality was then visually assessed.

[2] = tested on: vetch aphid (Megoura viciae); assay: Activity against vetch aphid, sprayed bean leaf disks in microtiter plates; conditions: foliar, 144 h, test solution 2500 mg/L, leaf disk spray, 6 days, read-out: mortality in comparison with untreated controls
Procedure: The active compounds were formulated in 1:3 (vol:vol) DMSO:water with different concentrations of formulated compounds.
Bean leaf disks were placed into microtiterplates filled with 0.8% agar-agar and 2.5 ppm OPUST™. The leaf disks were sprayed with 2.5 μl of the test solution and 5 to 8 adult aphids were placed into the microtiterplates which were then closed and kept at 23±1° C. and 50±5% relative humidity under fluorescent light for 6 days. Mortality was assessed on the basis of vital, reproduced aphids. Aphid mortality and fecundity was then visually assessed.

[3] = tested on: Vanda/orchid thrips (Dichromothrips corbetti); assay: Activity against Vanda/orchid thrips, dipped orchid petals; conditions: petal dip, after 72 hours, read-out: mortality in comparison with untreated controls
Procedure: The active compounds were formulated as a 50:50 (vohvol) acetone:water solution. Surfactant (Alkamuls® EL 620 from Rhodia) was added at the rate of 0.1% (vol/vol). Vanda orchids petals were cleaned, washed and air dried prior to dipping. Petals were dipped into the test solution for 3 seconds, air dried, placed inside a resealable plastic and inoculated with 20 adults. The treated petals were kept inside the holding room at 28-29° C. and relative humidity of 50-60%. Percent mortality was recorded after 72 hours.

[4] = tested on: silverleaf whitefly (Bemisia argentifolii, adult); assay: Activity against silverleaf whitefly adults, sprayed cotton plants; conditions: 72 h, spray, 3 days after treatment, read-out: mortality in comparison with untreated controls
Procedure: The active compounds were formulated in cyclohexanone as a 10,0000 ppm solution supplied in 1.3 ml ABgene® tubes. These tubes were inserted into an automated electrostatic sprayer equipped with an atomizing nozzle and they served as stock solutions for which lower dilutions were made in 50% acetone:50% water (v/v). A nonionic surfactant (Kinetic®) was included in the solution at a volume of 0.01% (v/v).
Cotton plants at the cotyledon stage (one plant per pot) were sprayed by an automated electrostatic plant sprayer equipped with an atomizing spray nozzle. The plants were dried in the sprayer fume hood and then removed from the sprayer. Each pot was placed into a plastic cup and 10 to 12 whitefly adults (approximately 3-5 days old) were introduced. The insects were collected using an aspirator and 0.6 cm, nontoxic Tygon® tubing (R-3603) connected to a barrier pipette tip. The tip, containing the collected insects, was then gently inserted into the soil containing the treated plant, allowing insects to crawl out of the tip to reach the foliage for feeding. Cups were covered with a reusable screened lid (150-micron mesh polyester screen PeCap from Tetko, Inc.). […] Mortality was assessed 3 days after treatment, compared to untreated control plants.

[5] = tested on: cowpea aphid (Aphis craccivora); assay: Activity against cowpea aphid, sprayed potted cowpea plants; conditions: spray, population reduction assessed after 24, 72 and 120 hours, read-out: mortality in comparison with untreated controls
Procedure: The active compounds were formulated in 50:50 (vohvol) acetone:water. The test solution was prepared at the day of use.
Potted cowpea plants colonized with 100-150 aphids of various stages were sprayed after the pest population had been recorded. Population reduction was assesed after 24, 72, and 120 hours.

[6] = tested on: Mediterranean fruitfly (Ceratitis capitata); assay: Activity against Mediterranean fruitfly, insect diet with eggs in microtiter plates; conditions: 120 h, sprayed onto diet with eggs, 5 days, read-out: mortality (egg and larval)
Procedure: The active compounds were formulated in 1:3 (vohvol) DMSO:water.
For evaluating control of Mediterranean fruitfly the test unit consisted of microtiter plates containing an insect diet and 50 to 80 C. capitata eggs.
Different concentrations of formulated compounds were sprayed onto the insect diet at 5 μI, using a custom built micro atomizer, at two replications. After application, microtiter plates were incubated at 28±1° C. and 80±5% relative humidity for 5 days. Egg and larval mortality was then visually assessed.

[7] = tested on: brown planthopper (Nilaparvata lugens); assay: Activity against brown planthopper, sprayed rice seedlings; conditions: spray, after 72 hours, read-out: mortality in comparison with untreated controls
Procedure: The active compounds were formulated as a 50:50 (vohvol) acetone:water solution. Surfactant (Alkamuls® EL 620 from Rhodia) was added at the rate of 0.1% (vol/vol).
Rice seedlings were cleaned and washed 24 h before spraying. Potted rice seedlings were sprayed with 5 ml test solution, air dried, placed in cages and inoculated with 10 adults. Treated rice plants were kept at 28-29° C. and relative humidity of 50-60%. Percent mortality was recorded after 72 hours.

[8] = tested on: diamondback moth (Plutella xylostella); assay: Activity against diamondback moth, dipped cabbage leaf disk; conditions: foliar, test solution 500 ppm, leaf dip, third instar larvae, after 72 h, read-out: mortality in comparison with untreated controls
Procedure: The active compounds were formulated in 50:50 acetone:water and 0.1% (vol/vol) Alkamuls® EL 620 surfactant. A 6 cm leaf disk of cabbage leaves was dipped in the test solution for 3 seconds and allowed to air dry in a Petri plate lined with moist filter paper. The leaf disk was inoculated with 10 third instar larvae and kept at 25-27° C. and 50-60% humidity for 3 days. Mortality was assessed after 72 h of treatment.

SMILES	mortality at 2500 µg/mL [1] [%]	mortality at 2500 µg/mL [2] [%]	mortality at 500 ppm [3] [%]	mortality at 500 ppm [4] [%]	mortality at 500 ppm [5] [%]	mortality at 2500 ppm [6] [%]	mortality at 500 ppm [7] [%]	mortality at 500 ppm [8] [%]
CC(c1nnc(C(F)(F)F)s1)S(=O)(=O)CCSC(F)(F)F (centres unmarked) [11-2, 2-(Trifluoromethyl)-5-{1-[2-(trifluoromethylthio)ethylsulfonyl]-ethyl}-1,3,4-thiadiazole]	100	100	≥ 75	≥ 75	≥ 75	≥ 50		
CC(Cl)(c1nnc(C(F)(F)F)s1)[S+]([O-])CCSC(F)(F)F (centres unmarked) [11-8, 2-{1-Chloro-1-[2-(trifluoromethylthio)ethylsulfinyl]ethyl}-5-(trifluoromethyl)-1,3,4-thiadiazole]	100						≥ 75	
CC(C#N)(SCCSC(F)(F)F)c1nnc(C(F)(F)F)s1 (centres unmarked) [11-9, 2-(5-(trifluoromethyl)-1,3,4-thiadiazol-2-yl)-2-(2-(trifluoromethylthio)ethylthio)propanenitrile]						≥ 50		
CC(c1nnc(C(F)(F)F)s1)[S+]([O-])CCSC(F)(F)F (centres unmarked) [11-3, 2-(Trifluoromethyl)-5-{1-[2-(trifluoromethylthio)ethylsulfinyl]ethyl}-1,3,4-thiadiazole]	100	100	≥ 75		≥ 75		≥ 75	≥ 75
CC(SCCSC(F)(F)F)c1nnc(C(F)(F)F)s1 (centres unmarked) [11-1, 2-(Trifluoromethyl)-5-{1-[2-(trifluoromethylthio)ethylthio]ethyl}-1,3,4-thiadiazole]	100	100						
